{"source": "patent US20150274719A1", "about": "“AMINO-SUBSTITUTED IMIDAZO[1,2-A]PYRIDINECARBOXAMIDES AND THEIR USE” (BAYER PHARMA AKTIENGESELLSCHAFT, priority 2012, published 2015)", "data": [{"target": "T1, recombinant guanylate cyclase reporter cell line (Rattus norvegicus, UniProt P19686+P20595)", "T1 construct": "expressed in transfected cells; host or cells: recombinant reporter cell line", "T1 sequence (P19686 1-690)": "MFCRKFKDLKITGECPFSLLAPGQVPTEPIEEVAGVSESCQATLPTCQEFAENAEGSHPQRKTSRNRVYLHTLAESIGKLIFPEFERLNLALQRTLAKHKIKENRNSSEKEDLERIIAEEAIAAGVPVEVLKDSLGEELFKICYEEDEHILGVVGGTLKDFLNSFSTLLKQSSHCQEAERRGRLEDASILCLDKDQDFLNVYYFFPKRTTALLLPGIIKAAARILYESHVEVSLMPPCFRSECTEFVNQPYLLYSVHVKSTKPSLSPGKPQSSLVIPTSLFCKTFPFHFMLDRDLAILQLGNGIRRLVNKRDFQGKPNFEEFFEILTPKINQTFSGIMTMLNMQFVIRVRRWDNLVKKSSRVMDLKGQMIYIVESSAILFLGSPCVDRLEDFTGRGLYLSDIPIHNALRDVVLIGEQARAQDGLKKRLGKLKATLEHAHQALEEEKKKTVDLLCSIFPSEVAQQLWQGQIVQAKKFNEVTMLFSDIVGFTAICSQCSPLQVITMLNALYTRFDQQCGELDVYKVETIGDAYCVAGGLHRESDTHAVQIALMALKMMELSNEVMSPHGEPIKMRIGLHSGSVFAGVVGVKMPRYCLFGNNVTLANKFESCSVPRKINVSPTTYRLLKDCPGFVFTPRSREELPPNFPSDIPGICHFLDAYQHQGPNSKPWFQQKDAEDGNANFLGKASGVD", "T1 sequence (P20595 1-619)": "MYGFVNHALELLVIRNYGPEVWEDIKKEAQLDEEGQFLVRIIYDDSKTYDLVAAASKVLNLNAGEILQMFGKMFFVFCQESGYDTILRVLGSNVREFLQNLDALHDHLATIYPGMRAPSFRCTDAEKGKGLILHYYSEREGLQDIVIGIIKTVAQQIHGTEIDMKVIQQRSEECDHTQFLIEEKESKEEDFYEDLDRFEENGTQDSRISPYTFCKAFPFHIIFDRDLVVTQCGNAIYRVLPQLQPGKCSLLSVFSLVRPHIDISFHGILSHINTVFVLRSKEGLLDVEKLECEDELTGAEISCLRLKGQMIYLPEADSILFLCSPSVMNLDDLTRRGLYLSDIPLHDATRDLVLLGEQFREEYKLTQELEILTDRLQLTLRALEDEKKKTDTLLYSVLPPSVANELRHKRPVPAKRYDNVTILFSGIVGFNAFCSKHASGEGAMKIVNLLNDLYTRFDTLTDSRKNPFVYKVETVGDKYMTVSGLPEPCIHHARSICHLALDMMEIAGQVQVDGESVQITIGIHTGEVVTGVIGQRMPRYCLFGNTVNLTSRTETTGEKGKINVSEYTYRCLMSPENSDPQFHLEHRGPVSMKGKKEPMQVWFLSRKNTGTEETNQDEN", "assay": "Action on recombinant guanylate cyclase reporter cell line", "type": "cell-based", "conditions": "in some cases mean values from individual determinations", "protocol": "B-2. Action on Recombinant Guanylate Cyclase Reporter Cell Line\nThe cellular action of the compounds according to the invention is determined on a recombinant guanylate cyclase reporter cell line, as described in F. Wunder et al., Anal. Biochem. 339, 104-112 (2005).\nRepresentative MEC values (MEC=minimal effective concentration) for the compounds according to the invention are shown in the following table (in some cases as mean values obtained from individual determinations): […]", "units": {"MEC (minimal effective concentration)": "µM"}, "values": [{"smiles": "Cc1cc(OCc2c(F)cccc2F)c2nc(C)c(C(=O)NC(C)C3CCN(C)CC3)n2c1", "note": "(racemic) [Example 77, rac-8-[(2,6-difluorobenzyl)oxy]-2,6-dimethyl-N-[1-(1-methylpiperidin-4-yl)ethyl]imidazo[1,2-a]-pyridine-3-carboxamide]", "MEC (minimal effective concentration)": 1.00}, {"smiles": "Cc1nc2c(OCc3c(F)cccc3F)cccn2c1C(=O)NCC(N)COC(C)C", "note": "(racemic) [Example 205, rac-N-(2-Amino-3-isopropoxypropyl)-8-[(2,6-difluorobenzyl)oxy]-2-methylimidazo[1,2-a]-pyridine-3-carboxamide]", "MEC (minimal effective concentration)": 0.30}, {"smiles": "CCCC(C)(N)CNC(=O)c1c(C)nc2c(OCc3c(F)cccc3F)cc(Cl)cn12", "note": "(single isomer, unassigned; enantiomer b) [Example 246, ent-N-(2-Amino-2-methylpentyl)-6-chloro-8-[(2,6-difluorobenzyl)oxy]-2-methylimidazo[1,2-a]-pyridine-3-carboxamide (Enantiomer B)]", "MEC (minimal effective concentration)": 0.30}, {"smiles": "Cc1nc2c(OCc3c(F)cccc3F)cccn2c1C(=O)NCCN1CCC(F)(F)C1", "note": "[Example 143, 8-[(2,6-difluorobenzyl)oxy]-N-[2-(3,3-difluoropyrrolidin-1-yl)ethyl]-2-methylimidazo[1,2-a]pyridine-3-carboxamide]", "MEC (minimal effective concentration)": 0.30}, {"smiles": "Cc1nc2c(OCc3c(F)cccc3F)cccn2c1C(=O)NCC(C)(N)COCc1ccccc1", "note": "(racemic) [Example 263, rac-N-[2-amino-3-(benzyloxy)-2-methylpropyl]-8-[(2,6-difluorobenzyl)oxy]-2-methylimidazo[1,2-a]pyridine-3-carboxamide]", "MEC (minimal effective concentration)": 1.00}, {"smiles": "Cc1nc2c(OCc3c(F)cccc3F)cccn2c1C(=O)NC1CC2CCC(C1)N2C", "note": "(stereo not shown) [Example 91, 8-[(2,6-difluorobenzyl)oxy]-2-methyl-N-(8-methyl-8-azabicyclo[3.2.1]oct-3-yl)imidazo[1,2-a]pyridine-3-carboxamide]", "MEC (minimal effective concentration)": 1.00}, {"smiles": "Cc1cc(OCc2c(F)cccc2F)c2nc(C)c(C(=O)NC3CCC3(C)N)n2c1", "note": "(single isomer, unassigned; enantiomer b) [Example 333, ent-N-[2-amino-2-methylcyclobutyl]-8-[(2,6-difluorobenzyl)oxy]-2,6-dimethylimidazo[1,2-a]pyridine-3-carboxamide (Enantiomer B)]", "MEC (minimal effective concentration)": 1.00}, {"smiles": "COCC(C)(N)CNC(=O)c1c(C)nc2c(OCc3c(F)cccc3F)cc(C)cn12", "note": "(racemic) [Example 166, rac-N-(2-amino-3-methoxy-2-methylpropyl)-8-[(2,6-difluorobenzyl)oxy]-2,6-dimethylimidazo[1,2-a]pyridine-3-carboxamide]", "MEC (minimal effective concentration)": 0.30}, {"smiles": "Cc1cc(OCc2c(F)cccc2F)c2nc(C)c(C(=O)NC(CN)c3ccc4ncccc4c3)n2c1", "note": "(racemic) [Example 395, rac-N-[2-amino-1-(quinolin-6-yl)ethyl]-8-[(2,6-difluorobenzyl)oxy]-2,6-dimethylimidazo[1,2-a]pyridine-3-carboxamide]", "MEC (minimal effective concentration)": 1.00}, {"smiles": "Cc1cc(OCc2c(F)cccc2F)c2nc(C)c(C(=O)NCCN3CCC(F)(F)CC3)n2c1", "note": "[Example 163, 8-[(2,6-difluorobenzyl)oxy]-N-[2-(4,4-difluoro-piperidin-1-yl)ethyl]-2,6-dimethylimidazo[1,2-a]pyridine-3-carboxamide]", "MEC (minimal effective concentration)": 0.30}, {"smiles": "Cc1nc2c(OCc3c(F)cccc3F)cccn2c1C(=O)NC1CCCN(C)C1", "note": "(racemic) [Example 84, rac-8-[(2,6-difluorobenzyl)oxy]-2-methyl-N-(1-methylpiperidin-3-yl)imidazo[1,2-a]-pyridine-3-carboxamide]", "MEC (minimal effective concentration)": 1.00}, {"smiles": "CCC1CC(NC(=O)c2c(C)nc3c(OCc4c(F)cccc4F)cc(C)cn23)c2nc(C(F)(F)F)ccc2N1", "note": "(single isomer, unassigned; ent-8) [Example 325, ent-8-[(2,6-Difluorobenzyl)oxy]-N-[2-ethyl-6-(trifluoromethyl)-1,2,3,4-tetrahydro-1,5-naphthyridin-4-yl]-2,6-dimethylimidazo[1,2-a]pyridine-3-carboxamide]", "MEC (minimal effective concentration)": 0.30}, {"smiles": "Cc1cc(OCc2c(F)ccc(C3CC3)c2F)c2nc(C)c(C(=O)NCC(C)(N)CF)n2c1", "note": "(stereo not shown) [Example 362, N-(2-amino-3-fluoro-2-methylpropyl)-8-[(3-cyclopropyl-2,6-difluorobenzyl)oxy]-2,6-dimethylimidazo[1,2-a]pyridine-3-carboxamide]", "MEC (minimal effective concentration)": 1.00}, {"smiles": "Cc1cc(OCc2c(F)cccc2F)c2nc(C)c(C(=O)NC[C@@H]3CCCN3)n2c1", "note": "[Example 115, 8-[(2,6-difluorobenzyl)oxy]-2,6-dimethyl-N-[(2S)-pyrrolidin-2-ylmethyl]imidazo[1,2-a]-pyridine-3-carboxamide]", "MEC (minimal effective concentration)": 1.00}, {"smiles": "Cc1cc(OCc2c(F)cccc2F)c2nc(C)c(C(=O)NCC(C)(N)C(F)(F)F)n2c1", "note": "(racemic) [Example 239, rac-N-(2-Amino-3,3,3-trifluoro-2-methylpropyl)-8-[(2,6-difluorobenzyl)oxy]-2,6-dimethyl-imidazo[1,2-a]pyridine-3-carboxamide]", "MEC (minimal effective concentration)": 0.30}, {"smiles": "Cc1nc2c(OCc3c(F)cccc3F)cccn2c1C(=O)NCC(C)N1CCOCC1", "note": "(racemic) [Example 132, rac-8-[(2,6-difluorobenzyl)oxy]-2-methyl-N-[2-(morpholin-4-yl)propyl]imidazo[1,2-a]pyridine-3-carboxamide]", "MEC (minimal effective concentration)": 1.00}, {"smiles": "Cc1cc(OCc2c(F)cccc2F)c2nc(C)c(C(=O)NC3CC(C)Nc4ccc(C(F)(F)F)nc43)n2c1", "note": "(single isomer, unassigned; ent-8) [Example 326, ent-8-[(2,6-Difluorobenzyl)oxy]-2,6-dimethyl-N-[2-methyl-6-(trifluoromethyl)-1,2,3,4-tetrahydro-1,5-naphthyridin-4-yl]imidazo[1,2-a]pyridine-3-carboxamide]", "MEC (minimal effective concentration)": 0.30}, {"smiles": "CCCC(C)(N)CNC(=O)c1c(CC)nc2c(OCc3c(F)cccc3F)cc(C)cn12", "note": "(stereo not drawn) [Example 338, ent-N-(2-amino-2-methylpentyl)-8-[(2,6-difluorobenzyl)oxy]-2-ethyl-6-methylimidazo[1,2-a]pyridine-3-carboxamide]", "MEC (minimal effective concentration)": 0.10}, {"smiles": "Cc1cc(OCc2c(F)cccc2F)c2nc(C)c(C(=O)NC3CCC4NCCC43)n2c1", "note": "(racemic) [Example 342, rac-8-[(2,6-Difluorobenzyl)oxy]-2,6-dimethyl-N-(octahydrocyclopenta[b]pyrrol-4-yl)imidazo[1,2-a]pyridine-3-carboxamide]", "MEC (minimal effective concentration)": 1.00}, {"smiles": "Cc1nc2c(OCC3CCCCC3)cccn2c1C(=O)NC(CN)c1ccccc1", "note": "(racemic) [Example 44, rac-N-(2-Amino-1-phenylethyl)-8-(cyclohexylmethoxy)-2-methylimidazo[1,2-a]pyridine-3-carboxamide]", "MEC (minimal effective concentration)": 0.30}, {"smiles": "Cc1nc2c(OCc3c(F)cccc3F)cccn2c1C(=O)NCCNC(C)C", "note": "[Example 130, 8-[(2,6-difluorobenzyl)oxy]-N-[2-(isopropylamino)ethyl]-2-methylimidazo[1,2-a]-pyridine-3-carboxamide]", "MEC (minimal effective concentration)": 1.00}, {"smiles": "Cc1nc2c(OCc3c(F)cccc3F)cc(Cl)cn2c1C(=O)NCC(N)CC(F)(F)F", "note": "(racemic) [Example 147, rac-N-(2-amino-4,4,4-trifluorobutyl)-6-chloro-8-[(2,6-difluorobenzyl)oxy]-2-methylimidazo[1,2-a]pyridine-3-carboxamide]", "MEC (minimal effective concentration)": 0.30}]}]}
